In a melting point compilation (Tetko et al.) one finds melting point data, which are given here for 122 compounds.

SMILES strings stand for the structures.

The compound `COCCOc1cn(-c2ccccc2)nc1C(=O)O` gave a melting point of 103 to 105 °C. Under `Cc1ccccc1C1(C(=O)O)CCOCC1` stands 170 to 172 °C; under `O=C(O)CCc1cncc(F)c1`, 165 to 167 °C; under `O=C(O)c1cccc(Oc2cccc(C(F)(F)F)c2)c1`, 115 to 117 °C. Regarding `COc1ccccc1NS(=O)(=O)c1ccc2oc(N)nc2c1`, the melting point lay in the range of 210 to 212 °C. Take `CCNC(=O)c1ccc(I)cc1`: the melting point was 148 to 150 °C. The same measure for `CCCNC(=O)CN(C)C(=O)CCl`: 212 to 217 °C; for `CC(N)(C(N)=O)c1ccccc1` (configuration not stated): 114 to 116 °C. Compound `CC(=O)c1ccc2cccc3c2c1CC3` yielded a melting point of 104 to 106 °C. Under `CCOC(=O)C(O)c1nccn1Cc1ccccc1` (configuration not stated) stands 134 to 136 °C; under `CCc1nnc(-c2ccc(N)cc2)o1`, 137 to 139 °C. In the case of `CC(C)c1ccc(C2(C(=O)O)CCC2)cc1`, the melting point was 119 to 121 °C. Under `COc1cccc(-c2nn(-c3ccccc3)cc2C(=O)O)c1` stands 156 to 158 °C; under `COC(=O)C1=NOC(C(=O)O)C1` (configuration not stated), 83 to 85 °C; under `COc1ccc(CCC(=O)O)cc1Br`, 95 to 97 °C. As to `O=Cc1ccccc1OCC(F)(F)F`, the melting point lay within 51 to 53 °C. `CCN(c1ccccc1)S(=O)(=O)c1ccc(Cl)nc1`: the melting point was 81 to 83 °C. `O=C(c1ccc(Br)cc1)c1cccnc1` came in with a melting point of 124 to 126 °C. In turn, `CSCCC(NS(=O)(=O)c1ccc2c(c1)OCCO2)C(=O)O` (configuration not stated) came in with a melting point of 93 to 96 °C. The same measure for `NC(=O)NC(=O)OCCCCl`: 165 to 167 °C; for `COc1ccc(C(N)=NO)cc1OC`: 164 to 166 °C; for `CCOC(=O)c1cnccn1`: 48 to 50 °C. Compound `CCC1(C(C)C)NC(=O)NC1=O` (configuration not stated) registered a melting point of 164 to 166 °C. Under `CS(=O)(=O)Cc1cccc(C(=O)O)c1` stands 188 to 190 °C. Under `O=C(O)C=Cc1ccc(SC(F)(F)F)cc1` stands 212 to 214 °C; under `O=C(CO)NC1CCCc2ccccc21` (configuration not stated), 114 to 116 °C; under `COc1ccccc1-n1cc(S(=O)(=O)Cl)cn1`, 68 to 70 °C. The same measure for `CC(=O)c1csc(C(=O)CCl)c1`: 124 to 126 °C; for `Cc1cc(Br)ccc1CO`: 74 to 76 °C. `O=C(O)c1cc(S(=O)(=O)N2CCCC2)ccc1Br` came in with a melting point of 216 to 218 °C.

Take `O=C(O)c1cc(S(=O)(=O)N2CCOCC2)c[nH]1`: the melting point fell in the range of 264 to 266 °C. The compound `O=C(Nc1cccc(C(=O)O)c1)NC1CC1` gave a melting point of 236 to 238 °C. The same measure for `CCCCCCn1cc(S(=O)(=O)Cl)c(=O)[nH]c1=O`: 157 to 159 °C; for `N#CCN1CCOCC1`: 62 to 64 °C; for `CC1CCc2sc(C(=O)O)cc2C1` (configuration not stated): 132 to 136 °C. Under `Cc1cc[nH]c(=O)c1C(N)=O` stands 235 to 237 °C; under `Nc1ncn(-c2ccccn2)n1`, 174 to 176 °C; under `Nc1nn(C(=O)c2ccccc2Br)c2ccccc12`, 224 to 226 °C. As for `CC(=O)NNC(=O)CCl`, the melting point was in the range of 157 to 159 °C. Under `Cn1cnc2cc(C(=O)O)cnc21` stands 284 to 286 °C; under `N#Cc1ccc(N2CCNC(=O)C2)cc1`, 224 to 226 °C. Turning to `Cc1cc(Cl)n2ncnc2c1`, the melting point was in the range of 93 to 95 °C. Compound `CNC(C)c1ccc(-n2cnc3ccccc32)cc1` (configuration not stated) had a melting point of 62 to 64 °C. With `O=C(NC(CO)C(=O)O)c1ccccc1` (configuration not stated), the melting point fell in the range of 159 to 161 °C. The same measure for `CC(=O)c1cccc(S(N)(=O)=O)c1`: 143 to 145 °C; for `NS(=O)(=O)c1ccc(C(=O)O)cc1Cl`: 231 to 233 °C; for `COC(=O)c1n[nH]c2ccccc12`: 159 to 161 °C.

Compound `O=C1CCSc2c(F)ccc(F)c21` gave a melting point of 111 to 113 °C. Under `CC(=O)Nc1ccc(Br)cc1[N+](=O)[O-]` stands 104 to 106 °C; under `Nc1nc(-c2ccc(Cl)cc2)no1`, 248 to 250 °C; under `Cn1cnnc1-c1ccc(N)nc1`, 249 to 251 °C. Under `CN(C)C(C#N)c1cc[nH]c1` (configuration not stated) stands 71 to 73 °C.

`COc1ccc(C=O)c(Cl)c1` yielded a melting point of 60 to 62 °C. Under `Cn1cc(S(N)(=O)=O)c2ccccc21` stands 194 to 196 °C; under `OCC1CCCN(c2cc(Cl)ncn2)C1` (configuration not stated), 111 to 113 °C. The compound `NNC(=S)NC1CCCC1` yielded a melting point of 76 to 78 °C. The same measure for `Cc1cnc(N)nc1`: 194 to 196 °C; for `NNC(=O)Cc1ccc2ccccc2c1`: 189 to 191 °C. In the case of `N#Cc1ccc(N2CCN(c3ccccc3)CC2)nc1`, the melting point lay within 131 to 133 °C.

As to `COc1ccsc1C(N)=O`, the melting point is 147 to 149 °C. Compound `CC(C)c1ccc(C=CCC(=O)O)cc1` gave a melting point of 49 to 51 °C.

Take `NS(=O)(=O)c1ccc(C(=O)NCC(=O)O)cc1`: the melting point was 192 to 194 °C.

For `NC(=NO)c1cnccn1`, the melting point lay within 182 to 184 °C. `O=C(c1ccc(Cl)cc1)c1ncccn1` gave a melting point of 91 to 93 °C.

`Nc1ccc(C(=O)N2CCCC2c2ccccc2)cc1` (configuration not stated) gave a melting point of 120 to 122 °C.

Take `Nc1ccc(CNC(=O)c2ccc(C(F)(F)F)cc2)cc1`: the melting point lay within 163 to 165 °C. With `CN(C)S(=O)(=O)c1c(Cl)nc2ccccn12`, the melting point fell in the range of 109 to 111 °C. Under `CN(Cc1ccccc1)C(=O)c1ccccc1C(=O)O` stands 153 to 155 °C; under `O=C(O)C(NC1CC1)c1ccc(O)cc1` (configuration not stated), 210 to 212 °C. Under `CC(Cl)C(=O)Nc1ccc2c(c1)OC1(CCCCC1)O2` (configuration not stated) stands 98 to 100 °C; under `Cc1nn2cc(CCCO)cnc2c1C`, 108 to 110 °C; under `CC(C)n1cccc1C(=O)Nc1cc(Cl)ccc1C(=O)O`, 226 to 228 °C.

`Nc1noc(-c2ccsc2)n1` showed a melting point of 196 to 198 °C. Compound `CNC(=O)COc1cccc(O)c1` yielded a melting point of 123 to 125 °C. Turning to `CC(C)(C)S(=O)Cc1cccc(N)c1` (configuration not stated), the melting point lay in the range of 121 to 123 °C.

In turn, `Cc1ccccc1N1C(=O)c2ccc(C(=O)O)cc2C1=O` gave a melting point of 234 to 236 °C.

With `COC(=O)c1sc2ncccc2c1N`, the melting point fell in the range of 191 to 193 °C. Under `COc1ccc(C(=O)O)cc1S(=O)(=O)N(C)C` stands 149 to 151 °C; under `Cc1c(C)c(C)c(C(=O)CCl)c(C)c1C`, 70 to 72 °C. `O=C(O)CCC(=O)N1CCC(c2ccccc2)=N1` gave a melting point of 182 to 184 °C. Under `FC(F)(F)c1nc(Cl)c2sccc2n1` stands 95 to 97 °C. `Cc1cccc(NC(=O)C2CCCNC2)n1` (configuration not stated): the melting point was in the range of 124 to 126 °C. In the case of `O=C(O)c1ccc(Oc2ccccc2[N+](=O)[O-])cc1`, the melting point was in the range of 196 to 198 °C.

In the case of `COc1cc(C(=O)O)ccc1OCc1ccc(Br)cc1`, the melting point fell in the range of 224 to 226 °C. Regarding `Cc1ccc(S(N)(=O)=O)cc1C(=O)O`, the melting point fell in the range of 175 to 190 °C. The compound `Brc1ncc(-c2ccccc2)s1` showed a melting point of 55 to 57 °C. Under `COC(=O)C(=O)CC(=O)c1cc(Cl)ccc1Cl` stands 150 to 152 °C; under `O=C(O)Cc1cccc(OCc2cccc(Cl)c2)c1`, 94 to 96 °C; under `O=[N+]([O-])c1ccc(OCc2ccco2)nc1`, 87 to 89 °C. In turn, `CCN(CC)C(=O)c1cccc(O)c1` returned a melting point of 80 to 82 °C.

Compound `Cc1cc(OCC(N)=O)ccc1N` came in with a melting point of 137 to 139 °C.

Regarding `CCn1c(=O)[nH]c2cc(C(=O)O)ccc2c1=O`, the melting point lay in the range of 347 to 349 °C. Under `CON=Cc1ccc(C(=O)O)cc1` stands 183 to 185 °C; under `Nc1ccccc1Cc1nc(-c2ccsc2)no1`, 118 to 120 °C; under `O=C(CCl)/N=c1\sccn1Cc1ccccc1Cl`, 82 to 84 °C. The same measure for `COCCNC(=O)NC(=O)CCl`: 103 to 105 °C. Under `O=S(=O)(Cl)c1sc(Cl)nc1Cl` stands 57 to 59 °C. The compound `CC(C)C(NC(=O)c1ccncc1)C(=O)O` (configuration not stated) showed a melting point of 187 to 189 °C.

`CCC(=O)c1ccc(Oc2ccccc2)cc1` had a melting point of 39 to 41 °C.

Take `Cc1nn(C)c2[nH]nc(N)c12`: the melting point was in the range of 135 to 137 °C. Under `CC(C)(C)NS(=O)(=O)c1ccc(C(=O)O)cc1` stands 181 to 185 °C; under `NNc1ccc([N+](=O)[O-])cc1Cl`, 145 to 147 °C; under `CN1CCCNc2nc3ccccc3nc21`, 146 to 148 °C. Under `CN1C(=O)CCC(CO)C1c1ccc(C(F)(F)F)cc1` (configuration not stated) stands 95 to 97 °C; under `CC(Oc1ccc(C(C)(C)C)cc1)C(=O)O` (configuration not stated), 93 to 95 °C. In turn, `NC(=O)CNc1ccccc1` came in with a melting point of 139 to 141 °C. Turning to `O=C(O)CCc1ncc(-c2ccco2)o1`, the melting point fell in the range of 140 to 142 °C. Consider `COCCOc1ccc(C(F)(F)F)cc1NC(=O)CCl`, for which the melting point lay within 80 to 82 °C.

`O=[N+]([O-])c1ccccc1Nc1ccc(F)cc1F`: the melting point lay within 79 to 81 °C.

In turn, `O=C(O)c1ccc(N2C(=O)CSC2=S)cc1` showed a melting point of 281 to 283 °C. Under `NNC(=O)c1nnc(-c2ccccc2)o1` stands 173 to 175 °C; under `O=Cc1cc(CCl)ccc1O`, 87 to 89 °C.

The compound `O=S(=O)(F)CC1CCOCC1` gave a melting point of 53 to 55 °C. The same measure for `Nc1c(Br)cc(Cl)cc1C(=O)O`: 232 to 234 °C; for `CN(C(=O)c1ccc(N)cc1)C1CCOCC1`: 170 to 172 °C; for `Cc1cc(N)n(Cc2ccccn2)n1`: 94 to 96 °C.

Take `CCn1nc(C)c(C(=O)O)c1C`: the melting point lay in the range of 139 to 141 °C.

For the compound `Cc1ccccc1-n1c(S)nc(O)cc1=O`, the melting point was 206 to 208 °C. The same measure for `Cc1ccc(C(=O)CBr)cc1C`: 63 to 65 °C. For `NC(=O)CCNC(=O)c1ccccc1N`, the melting point lay in the range of 197 to 199 °C. The same measure for `Cc1c(Cl)cccc1N1C(=O)C=CC1=O`: 68 to 70 °C; for `Cc1noc(-c2cccnc2Cl)n1`: 65 to 67 °C.

Broadly, the melting point is the temperature of the solid-liquid transition.
